{
  "source": "patent EP4548971A1",
  "about": "“1,4-BENZOTHIAZEPINES AND RELATED COMPOUNDS WITH CYCLOPROPANOL GROUPS AS MULTI-TARGETED DRUGS” (Georg-August-Universität Göttingen Stiftung Öffentlichen …, priority 2023, dated 2025)",
  "key": {"[1]": {"test": "Membrane permeability, PermeaPad plate (cell-free transport model)", "type": "in vitro ADME", "conditions": "for Pe: permeability rate, room temperature, 24 hours", "protocol": "Membrane permeability was assessed using PermeaPad® Plate according to the manufacturing procedure (innoME GmbH, Espelkamp, Germany). Briefly, 200 µl water was added into acceptor plate. 200 µl of 100 - 500 µM test compound in water was added directly to the well membranes of the donor plate. The donor plate contains a biomimetic membrane for simulating passive mass transfer through different barriers in the body. Then the donor plate was placed into the acceptor plate wells and incubated at room temperature for 24 hours in dark. To determine peak absorbance of test compounds, absorbance spectra of acceptor solutions and initial solutions for each test compound were read out. The Permeability Rate (Pe) was calculated using the formula: Pe = C × −ln(1−(ODA)/(ODE)) cm/s, [formula]\nwhere ODA is the absorbance of acceptor solution, ODE is the absorbance of the standard solution; if the compound is able to permeabilize the membrane and fully reach equilibrium, 250 µM will be the final concentration of solution in the donor and acceptor wells. The coefficient C was calculated using the formula: C = (VD × VA)/((VD+VA) × Area × time), [formula] where VA - acceptor volume (cm^3), VD - donor volume (cm^3), membrane area 0.24 cm^2, time is 86,400 s.\nThe membrane permeability of the derivatives was determined using cell-free transport models (PermeaPad®, innoME GmbH), and permeability rates (Pe), which are a measure of how fast a compound can cross a membrane, were established (Table 1)."}, "SERCA2": {"target": "T1, SERCA2 (Homo sapiens, UniProt P16615)", "T1 construct": "endogenous in cells; host or cells: HEK-293T cells, microsomal membrane vesicles", "T1 sequence (P16615 whole entry)": "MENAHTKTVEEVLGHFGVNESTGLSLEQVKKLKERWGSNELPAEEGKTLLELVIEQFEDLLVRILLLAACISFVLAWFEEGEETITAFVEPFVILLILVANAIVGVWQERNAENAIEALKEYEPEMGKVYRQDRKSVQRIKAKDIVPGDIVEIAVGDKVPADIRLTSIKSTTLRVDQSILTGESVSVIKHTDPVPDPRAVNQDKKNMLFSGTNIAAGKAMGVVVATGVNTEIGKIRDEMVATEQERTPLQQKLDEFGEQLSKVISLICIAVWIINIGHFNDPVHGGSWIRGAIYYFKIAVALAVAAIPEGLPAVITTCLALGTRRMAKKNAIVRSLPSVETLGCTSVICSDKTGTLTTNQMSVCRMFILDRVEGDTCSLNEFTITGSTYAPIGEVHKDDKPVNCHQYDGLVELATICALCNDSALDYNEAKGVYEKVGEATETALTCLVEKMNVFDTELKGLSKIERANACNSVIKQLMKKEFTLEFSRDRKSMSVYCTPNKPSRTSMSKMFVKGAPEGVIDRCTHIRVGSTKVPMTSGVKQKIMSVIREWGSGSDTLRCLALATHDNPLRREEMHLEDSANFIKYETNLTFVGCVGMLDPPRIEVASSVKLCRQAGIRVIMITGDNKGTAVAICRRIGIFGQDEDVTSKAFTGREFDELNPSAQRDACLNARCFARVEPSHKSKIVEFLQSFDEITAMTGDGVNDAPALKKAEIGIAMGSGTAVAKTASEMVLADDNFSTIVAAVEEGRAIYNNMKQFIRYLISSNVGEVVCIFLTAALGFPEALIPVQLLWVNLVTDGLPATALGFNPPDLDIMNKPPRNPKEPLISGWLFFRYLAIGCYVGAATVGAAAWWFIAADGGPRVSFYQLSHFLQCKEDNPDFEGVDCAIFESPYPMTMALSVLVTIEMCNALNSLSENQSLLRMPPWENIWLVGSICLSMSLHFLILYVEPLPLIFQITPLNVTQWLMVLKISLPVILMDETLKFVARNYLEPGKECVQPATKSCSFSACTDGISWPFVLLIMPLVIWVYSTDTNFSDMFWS", "test": "NADH-coupled ATPase assay on microsomal membrane vesicles from HEK-293T cells (HEK-293 ER)", "type": "biochemical", "parameters": "key to SERCA2a HEK ER effect class: +++: a strong effect, comparable to or greater than that of a known compounds at a given concentration (25 µM in RyR2 R-CEPIA1er assay, 10 µM in caffeine assay and on microsomal membrane vesicles); ++: moderate effect; +: observable effect; -: no effect", "conditions": "for SERCA2a HEK ER effect class: 10 µM on microsomal membrane vesicles; for effect on SERCA2 ATPase activity, in words: microsomes from HEK-293 ER, 10 µM (1 µM for 14b), vs. 0.1 % DMSO", "protocol": "Isolation of microsomal membrane vesicles from HEK-293T cells (HEK-293 ER) was performed according to Stewart et al.^61 HEK-293T cells were harvested with Trypsin/EDTA, washed twice with ice-cold PBS containing protease inhibitor cocktail (cOmplete™, Roche, Mannheim, Germany) and centrifuged 800 × g for 5 min. The pellet was resuspended in ice-cold lysis buffer (1 mM EDTA, 10 mM HEPES, cOmplete, pH 7.4) and incubated on ice for 20 minutes. After the cells were homogenized with a tight fitting Dounce homogenizer (10-20 strokes), an equal volume of restoration buffer (500 mM sucrose, 10 mM HEPES, cOmplete, pH 7.2) was added and the cells were homogenized again (10-20 strokes). The homogenate was centrifuged at 10000 × g for 20 min at 4° C. The supernatant was collected and centrifuged again for another 2 hours (100000 × g at 4° C). Then the pellet was carefully resuspended in resuspension buffer (250 mM sucrose, 10 mM HEPES, cOmplete, pH 7.2) on ice by pipetting the solution up and down until fully dissolved. The obtained solution was diluted to a protein concentration of 15-20 µg/µl with the resuspension buffer, the aliquots were snap frozen in liquid nitrogen and stored at - 80 °C until usage.\nTo determine whether new compounds could increase the SERCA2a activity, HEK-293 microsomes (40 - 150 µg of total protein) or mouse ventricular microsomes (1 - 20 µg of total protein) were diluted in 100 µl of the assay buffer used for measurement of SERCA activity (described below) and incubated at room temperature for 5 minutes prior to the experiments. The measurements of SERCA2a activity were made at 28 °C by using a NADH -coupled ATPase assay. Briefly, the assay buffer contained 60 mM MOPS, 120 mM KCI, 6 mM MgCl2, 1 mM EGTA, 5 mM NaN3, 0.5 mM phosphoenolpyruvate and 1.5 mM CaCl2, pH 7.0. Before the reaction was started by the injection of […] ATP (resulting in 2 mM final concentration in the well), 5 units/mL of both lactate dehydrogenase and pyruvate kinase, 0.5 mM NADH, and 1 µM Ca^2+ ionophore A-23187 (Sigma, C-7522) were added to the diluted sample with or without the tested compound. The 1.5 mM Ca/EGTA buffer has a free Ca^2+ concentration of about 200 µM. The NADH fluorescence decrease was recorded each 2 s for 10 min course on a multiwell plate reader TECAN Spark 20M in 96-well glass bottom plates (MatTek Corporation; Cat. No. PBK96G-1.5-5-F). Fluorescence was evoked by 380 nm excitation wavelength and collected in a bottom-read mode at 425 nm. Exposure - 30 flashes, excitation bandwidth - 10 nm, emission bandwidth - 10 nm. ATP was injected at 30 s. […] The data were analyzed with computer software GraphPad Prism version 8.3.1 (GraphPad Software, Inc.). The difference in signal decrease with and without microsomes was taken as an indicator for the additional ATPase activity performed by SERCA2a. The obtained values for maximal SERCA2a activity were normalized for total protein concentration. Maximal SERCA2a activity values are reported as percentages of control (0.1% DMSO) values. Microsomal samples that were kept on ice until usage and set to 100%.\nIn an NADH assay, the change in NADH coenzyme fluorescence reflects the level of the consumption of ATP, which can be taken as an indicator of SERCA2 activity [G. B. Warren, P. A. Toon, N. J. Birdsall, A. G. Lee, J. C. Metcalfe, Reconstitution of a calcium pump using defined membrane components. Proc. Natl. Acad. Sci. U.S.A. 1974, 71, 622 - 626]. ATP hydrolysis by SERCA2 is required to pump calcium ions into the SER. A higher rate of ATP hydrolysis corresponds to enhanced SERCA2 ATPase activity that leads to a greater pumping of calcium ions into the SR.\nThe rate of NADH oxidation, which is coupled to ATP hydrolysis, was observed by measuring changes in NADH intrinsic fluorescence over time after ATP injection into microsomal membranes enriched in SER vesicles isolated from mouse heart ventricles (mouse SER) and ER vesicles from HEK-293T cells (HEK-293 ER). […]"}},
  "note": "Entries after “also recorded” stand apart in the source; their conditions may differ.",
  "data": [
    {"smiles": "COc1ccc2c(c1)CN(Cc1ccc(C(=O)O)cc1)CCS2", "note": "[ARM210, reference compound]", "values": [
      {"measurement": "Pe rating in words (low / medium / high; poor)", "setting": "[1]", "value": "high"},
      {"measurement": "Pe", "setting": "[1]", "value": "6.8 10^-6 cm/s"},
      {"measurement": "SERCA2a HEK ER effect class", "setting": "SERCA2", "value": "+"},
      {"measurement": "effect on SERCA2 ATPase activity, in words", "setting": "SERCA2", "value": "significant activation of SERCA2 ATPase"}
    ]},
    {"smiles": "COc1ccc2c(c1)CN(CCCCNCCCCC1(O)CC1)CCS2", "note": "[Compound 13a, 1-(4-((4-(7-Methoxy-2,3-dihydrobenzo[1,4-f]-thiazepin-4(5H)-yl)butyl)amino)butyl)cyclopropan-1-ol]", "values": [
      {"measurement": "Pe rating in words (low / medium / high; poor)", "setting": "[1]", "value": "poor permeability and low"},
      {"measurement": "Pe", "setting": "[1]", "value": "0.8 10^-6 cm/s"},
      {"measurement": "SERCA2a HEK ER effect class", "setting": "SERCA2", "value": "-"},
      {"measurement": "effect on SERCA2 ATPase activity, in words", "setting": "SERCA2", "value": "did not evoke significant increase in ATPase activity; also recorded: could not detect SERCA2 activation"}
    ]},
    {"smiles": "COc1ccc(OCCCNCCCCC2(O)CC2)cc1", "note": "[Compound 13b, 1-(4-((3-(4-methoxyphenoxy)propyl)amino)butyl)cyclopropan-1-ol]", "values": [
      {"measurement": "Pe rating in words (low / medium / high; poor)", "setting": "[1]", "value": "high"},
      {"measurement": "Pe", "setting": "[1]", "value": "4.0 10^-6 cm/s"},
      {"measurement": "SERCA2a HEK ER effect class", "setting": "SERCA2", "value": "-"}
    ]},
    {"smiles": "COc1ccc(SCCCNCCCCC2(O)CC2)cc1", "note": "[Compound 13c, 1-(4-((3-((4-Methoxyphenyl)thio)propyl)amino)butyl)cyclopropan-1-ol]", "values": [
      {"measurement": "Pe rating in words (low / medium / high; poor)", "setting": "[1]", "value": "high"},
      {"measurement": "Pe", "setting": "[1]", "value": "6.9 10^-6 cm/s"},
      {"measurement": "SERCA2a HEK ER effect class", "setting": "SERCA2", "value": "+"},
      {"measurement": "effect on SERCA2 ATPase activity, in words", "setting": "SERCA2", "value": "significant activation of SERCA2 ATPase"}
    ]},
    {"smiles": "COc1ccc2c(c1)CN(CCCCC1(O)CC1)CCS2", "note": "[Compound 13d, 1-(4-(7-methoxy-2,3-dihydrobenzo[1,4-f]thiazepin-4(5H)-yl)butyl)cyclopropan-1-ol]", "values": [
      {"measurement": "Pe rating in words (low / medium / high; poor)", "setting": "[1]", "value": "high"},
      {"measurement": "Pe", "setting": "[1]", "value": "3.6 10^-6 cm/s"},
      {"measurement": "SERCA2a HEK ER effect class", "setting": "SERCA2", "value": "+"},
      {"measurement": "effect on SERCA2 ATPase activity, in words", "setting": "SERCA2", "value": "significant activation of SERCA2 ATPase; also recorded: slight"}
    ]},
    {"smiles": "COc1ccc2c(c1)CN(CCCCN(CCCCC1(O)CC1)CCCCC1(O)CC1)CCS2", "note": "[Compound 14a, 1,1'-(((4-(7-Methoxy-2,3-dihydrobenzo[1,4-f]thiazepin-4(5H)-yl)butyl)azanediyl)bis(butane-4,1-diyl))bis(cyclopropan-1-ol)]", "values": [
      {"measurement": "Pe rating in words (low / medium / high; poor)", "setting": "[1]", "value": "poor permeability and low"},
      {"measurement": "Pe", "setting": "[1]", "value": "0.6 10^-6 cm/s"},
      {"measurement": "SERCA2a HEK ER effect class", "setting": "SERCA2", "value": "++"},
      {"measurement": "EC50", "setting": "SERCA2; ATPase activity, range after the semicolon is not explained, read-out: SERCA2a HEK ER (EC50)", "value": 16, "unit": "nM"}
    ]},
    {"smiles": "COc1ccc(SCCCN(CCCCC2(O)CC2)CCCCC2(O)CC2)cc1", "note": "[Compound 14c, 1,1'-(((3-((4-Methoxyphenyl)thio)propyl)azanediyl)bis(butane-4,1-diyl))bis(cyclopropan-1-ol)]", "values": [
      {"measurement": "Pe rating in words (low / medium / high; poor)", "setting": "[1]", "value": "high"},
      {"measurement": "Pe", "setting": "[1]", "value": "3.6 10^-6 cm/s"},
      {"measurement": "SERCA2a HEK ER effect class", "setting": "SERCA2", "value": "+"}
    ]},
    {"smiles": "COc1ccc2c(c1)CN(C(=O)C(=O)O)CCS2", "note": "[Compound S36, reference compound]", "values": [
      {"measurement": "Pe rating in words (low / medium / high; poor)", "setting": "[1]", "value": "poor permeability and low"},
      {"measurement": "Pe", "setting": "[1]", "value": "1.0 10^-6 cm/s"}
    ]}
  ]
}
